Measured values: PubChem BioAssay AID234 (DTP/NCI, 2004)
Values joined by “and” are separate entries in the source; they are usually repeats but may differ in a detail not shown here. Equal entries are not always repeated. Results filed as inconclusive are left out.

Test system: C3AKF1 mice, hamster liver cystadenocarcinoma s.c., tumor weight T/C
Assay: NCI In Vivo Anticancer Drug Screen. Data for tumor model Cystadenocarcinoma, Liver (No. 1) (Hamster) (subcutaneous) in C3AKF1 (CHKRF1) mice
Conditions: endpoint: mean tumor weight, higher = larger tumour
Protocol: The antitumor activity of compounds was measured in mice bearing transplantable tumors. Survival or tumor size were measured and the results are expressed as the measurement made in the treated group (T) divided by the measurement made in the vehicle treated control group (C). The tumor model used in this assay is Cystadenocarcinoma, Liver (No. 1) (Hamster) (subcutaneous) in C3AKF1 (CHKRF1) mice

[1] = dose: 62.5 mg/kg/injection, schedule: Q01DX010 (ip), vehicle: carboxymethylcellulose (CMC)
[2] = dose: 125.0 mg/kg/injection, schedule: Q01DX010 (ip), vehicle: carboxymethylcellulose (CMC)
[3] = dose: 250.0 mg/kg/injection, schedule: Q01DX010 (ip), vehicle: carboxymethylcellulose (CMC)
[4] = dose: 3.0 mg/kg/injection, schedule: Q01DX010 (ip), vehicle: saline
[5] = dose: 6.0 mg/kg/injection, schedule: Q01DX010 (ip), vehicle: saline
[6] = dose: 12.0 mg/kg/injection, schedule: Q01DX010 (ip), vehicle: saline
[7] = dose: 24.0 mg/kg/injection, schedule: Q01DX010 (ip), vehicle: saline
[8] = dose: 45.0 mg/kg/injection, schedule: Q01DX010 (ip), vehicle: carboxymethylcellulose (CMC)
[9] = dose: 3.0 mg/kg/injection, schedule: Q01DX010 (ip), vehicle: carboxymethylcellulose (CMC)
[10] = dose: 500.0 mg/kg/injection, schedule: Q01DX010 (ip), vehicle: carboxymethylcellulose (CMC)
[11] = dose: 25.0 mg/kg/injection, schedule: Q01DX010 (ip), vehicle: carboxymethylcellulose (CMC)
[12] = dose: 50.0 mg/kg/injection, schedule: Q01DX010 (ip), vehicle: carboxymethylcellulose (CMC)
[13] = dose: 100.0 mg/kg/injection, schedule: Q01DX010 (ip), vehicle: carboxymethylcellulose (CMC)
[14] = dose: 12.5 mg/kg/injection, schedule: Q01DX010 (ip), vehicle: carboxymethylcellulose (CMC)
[15] = dose: 10.0 mg/kg/injection, schedule: Q01DX010 (ip), vehicle: carboxymethylcellulose (CMC)
[16] = dose: 20.0 mg/kg/injection, schedule: Q01DX010 (ip), vehicle: carboxymethylcellulose (CMC)
[17] = dose: 400.0 mg/kg/injection, schedule: Q01DX010 (ip), vehicle: carboxymethylcellulose (CMC)
[18] = dose: 37.5 mg/kg/injection, schedule: Q01DX010 (ip), vehicle: carboxymethylcellulose (CMC)
[19] = dose: 75.0 mg/kg/injection, schedule: Q01DX010 (ip), vehicle: carboxymethylcellulose (CMC)

In the case of `c1ccc2c(c1)ccc1cc3c(ccc4ccccc43)cc12`, the T/C [1] is reported as 64 % of control, the T/C [2] is reported as 88 % of control and the T/C [3] is reported as 86 % of control.

For `O=P(c1ccccc1)(N1CC1)N1CC1`, the T/C [4] was 108 % of control, the T/C [5] was 98 % of control and the T/C [6] was 76 % of control. The T/C [7] was 212 % of control.

For `O=c1c[n+](-c2ccccc2)[nH]o1`, the T/C (dose: 22.5 mg/kg/injection, schedule: Q01DX010 (ip), vehicle: carboxymethylcellulose (CMC)) was 66 % of control and the T/C [8] was 41 % of control.

`Cc1nc(N)nc(N)c1-c1ccc(Cl)c(Cl)c1` was tested, and the T/C (dose: 0.75 mg/kg/injection, schedule: Q01DX010 (ip), vehicle: carboxymethylcellulose (CMC)) was 83 % of control, the T/C (dose: 1.5 mg/kg/injection, schedule: Q01DX010 (ip), vehicle: carboxymethylcellulose (CMC)) was 106 % of control and the T/C [9] was 100 % of control.

`CCC[CH2][Sn]1([CH2]CCC)[O]C(=O)C[S]1` was tested, and the T/C (dose: 0.39 mg/kg/injection, schedule: Q01DX010 (ip), vehicle: saline) was 113 % of control, the T/C (dose: 0.78 mg/kg/injection, schedule: Q01DX010 (ip), vehicle: saline) was 110 % of control and the T/C (dose: 1.56 mg/kg/injection, schedule: Q01DX010 (ip), vehicle: saline) was 66 % of control.

For `COc1ccc(-c2c(CC(=O)O)c3cc(OC)ccc3n2Cc2ccc(Cl)cc2)cc1`, the T/C [2] was 90 % of control, the T/C [3] was 100 % of control and the T/C [10] was 100 % of control.

For `O=c1[nH]cnc2n[nH]nc12`, the T/C [1] was 112 % of control, the T/C [2] was 77 % of control and the T/C [3] was 60 % of control. The T/C [10] was 68 % of control.

`NC(CCSCc1ccc(N(CCCl)CCCl)cc1)C(=O)O` (centres undefined) was tested, and the T/C (dose: 4.5 mg/kg/injection, schedule: Q01DX010 (ip), vehicle: saline) was 90 % of control, the T/C (dose: 9.0 mg/kg/injection, schedule: Q01DX010 (ip), vehicle: saline) was 94 % of control and the T/C (dose: 16.0 mg/kg/injection, schedule: Q01DX010 (ip), vehicle: saline) was 84 % of control. The T/C (dose: 18.0 mg/kg/injection, schedule: Q01DX010 (ip), vehicle: saline) was 52 % of control, the T/C [7] was 63 % of control and the T/C (dose: 36.0 mg/kg/injection, schedule: Q01DX010 (ip), vehicle: saline) was 55 % of control.

For `CC(=O)NCCSC(=O)C(=O)SCCNC(C)=O`, the T/C [11] was 72 % of control, the T/C [12] was 111 % of control and the T/C [13] was 65 % of control.

`O=C(O)c1ccc(-c2ccccc2)cc1` was tested, and the T/C [12] was 95 % of control and the T/C [13] was 49 % of control.

With `CCC[CH2][Sn]([CH2]CCC)([CH2]CCC)[O]C(=O)CC[S][Sn]([CH2]CCC)([CH2]CCC)[CH2]CCC` the T/C (dose: 0.75 mg/kg/injection, schedule: Q01DX010 (ip), vehicle: saline) was 111 % of control, the T/C (dose: 1.5 mg/kg/injection, schedule: Q01DX010 (ip), vehicle: saline) was 77 % of control and the T/C [4] was 100 % of control. The T/C [5] was 83 % of control and 84 % of control, the T/C [6] was 92 % of control and the T/C [7] was 93 % of control.

`NC(=O)/C=C/C(=O)O` (tested in a mixture with another compound) was tested, and the T/C (dose: 31.0 mg/kg/injection, schedule: Q#A X010 (ip), vehicle: saline) was 68 % of control.

In the case of `CCN(CC)Cc1cc(Nc2c3ccccc3nc3cc(Cl)ccc23)ccc1O`, the T/C (dose: 6.25 mg/kg/injection, schedule: Q01DX010 (ip), vehicle: carboxymethylcellulose (CMC)) is reported as 84 % of control, the T/C [14] is reported as 106 % of control and the T/C [11] is reported as 87 % of control. The T/C [12] was 88 % of control.

`C/C=C1\CN(C)[C@H]2Cc3c([nH]c4ccccc34)[C@@H](c3cc4[nH]c5c(c4cc3OC)CCN3C[C@H]4C[C@H](CC)[C@H]3[C@@]5(C(=O)OC)C4)C[C@H]1C2C(=O)OC` (some centres undefined) was tested, and the T/C (dose: 30.0 mg/kg/injection, schedule: Q01DX010 (ip), vehicle: water) was 70 % of control.

In the case of `CC1(C)CC(C)(c2ccccc2)c2ccccc21` (centres undefined), the T/C [1] is reported as 97 % of control, the T/C [2] is reported as 87 % of control and the T/C [3] is reported as 90 % of control. For the same molecule, the T/C [10] was 65 % of control.

For `O=C1C=Cc2ccc(O)cc2C1=O`, the T/C (dose: 1.25 mg/kg/injection, schedule: Q01DX010 (ip), vehicle: carboxymethylcellulose (CMC)) was 71 % of control, the T/C (dose: 2.5 mg/kg/injection, schedule: Q01DX010 (ip), vehicle: carboxymethylcellulose (CMC)) was 72 % of control and the T/C (dose: 5.0 mg/kg/injection, schedule: Q01DX010 (ip), vehicle: carboxymethylcellulose (CMC)) was 74 % of control. The T/C [15] was 88 % of control and 89 % of control and the T/C [16] was 74 % of control.

With `CCn1cnc2c(=S)nc(N)[nH]c21` the T/C [9] was 115 % of control, the T/C (dose: 7.0 mg/kg/injection, schedule: Q01DX010 (ip), vehicle: carboxymethylcellulose (CMC)) was 107 % of control and the T/C (dose: 15.0 mg/kg/injection, schedule: Q01DX010 (ip), vehicle: carboxymethylcellulose (CMC)) was 59 % of control and 70 % of control.

With `COc1ccccc1NC(=O)CSC(N)=O` the T/C [12] was 92 % of control, the T/C [13] was 86 % of control and the T/C (dose: 200.0 mg/kg/injection, schedule: Q01DX010 (ip), vehicle: carboxymethylcellulose (CMC)) was 95 % of control. For the same molecule, the T/C [17] was 38 % of control.

With `O=S(=O)(O)C(Nc1ccccc1)c1ccccc1` (centres undefined) the T/C (dose: 100.0 mg/kg/injection, schedule: Q01DX010 (ip), vehicle: water) was 88 % of control, the T/C (dose: 200.0 mg/kg/injection, schedule: Q01DX010 (ip), vehicle: water) was 66 % of control and the T/C (dose: 400.0 mg/kg/injection, schedule: Q01DX010 (ip), vehicle: water) was 84 % of control.

In the case of `O=C(O)Cc1ccc(C2CCCCC2)cc1`, the T/C [18] is reported as 118 % of control, the T/C [19] is reported as 115 % of control and the T/C (dose: 150.0 mg/kg/injection, schedule: Q01DX010 (ip), vehicle: carboxymethylcellulose (CMC)) is reported as 114 % of control and 121 % of control. For the same molecule, the T/C (dose: 300.0 mg/kg/injection, schedule: Q01DX010 (ip), vehicle: carboxymethylcellulose (CMC)) was 94 % of control.

In the case of `CCOC(=O)C(Cc1ccc(N(CCCl)CCCl)cc1)NC=O` (centres undefined), the T/C [15] is reported as 93 % of control, the T/C [16] is reported as 93 % of control and the T/C (dose: 40.0 mg/kg/injection, schedule: Q01DX010 (ip), vehicle: carboxymethylcellulose (CMC)) is reported as 55 % of control.

With `CC(C)CCSc1nc(N)nc2nc[nH]c12` the T/C [8] was 74 % of control, the T/C (dose: 90.0 mg/kg/injection, schedule: Q01DX010 (ip), vehicle: carboxymethylcellulose (CMC)) was 70 % of control and the T/C (dose: 180.0 mg/kg/injection, schedule: Q01DX010 (ip), vehicle: carboxymethylcellulose (CMC)) was 94 % of control.

`O=C1C=CC(=O)O1` (tested in a mixture with another compound) was tested, and the T/C (dose: 1.5 mg/kg/injection, schedule: Q#A X020 (ip), vehicle: carboxymethylcellulose (CMC)) was 68 % of control, the T/C (dose: 3.5 mg/kg/injection, schedule: Q#A X020 (ip), vehicle: carboxymethylcellulose (CMC)) was 82 % of control and the T/C (dose: 7.5 mg/kg/injection, schedule: Q#A X010 (ip), vehicle: carboxymethylcellulose (CMC)) was 91 % of control. The T/C (dose: 62.5 mg/kg/injection, schedule: Q#A X010 (ip), vehicle: carboxymethylcellulose (CMC)) was 77 % of control.

With `CCOC(=O)NC` the T/C (dose: 75.0 mg/kg/injection, schedule: Q01DX010 (ip), vehicle: saline) was 64 % of control, the T/C (dose: 150.0 mg/kg/injection, schedule: Q01DX010 (ip), vehicle: saline) was 83 % of control and the T/C (dose: 300.0 mg/kg/injection, schedule: Q01DX010 (ip), vehicle: saline) was 93 % of control. For the same molecule, the T/C (dose: 600.0 mg/kg/injection, schedule: Q01DX010 (ip), vehicle: saline) was 83 % of control.

In the case of `O=c1[nH]c2cc(Cl)c(Cl)cc2o1`, the T/C (dose: 9.5 mg/kg/injection, schedule: Q01DX010 (ip), vehicle: carboxymethylcellulose (CMC)) is reported as 119 % of control, the T/C (dose: 19.0 mg/kg/injection, schedule: Q01DX010 (ip), vehicle: carboxymethylcellulose (CMC)) is reported as 104 % of control and the T/C [18] is reported as 95 % of control and 107 % of control. The T/C [19] was 98 % of control.

In the case of `CCCn1cnc2c(SCc3ccccc3Cl)nc(N)nc21`, the T/C [11] is reported as 88 % of control, the T/C [13] is reported as 90 % of control and 105 % of control and the T/C [17] is reported as 96 % of control.

For `CC(CCc1cccc2ccccc12)(C(=O)O)C(=O)O`, the T/C [13] was 96 % of control.

With `CCCCCCCCCC(C)(O)C#CC(C)(O)CCCCCCCCC` (centres undefined) the T/C [14] was 86 % of control, the T/C [11] was 74 % of control and the T/C [12] was 96 % of control. The T/C [13] was 64 % of control.
